Entries after “also recorded” stand apart in the source; their conditions may differ.
Columns and labels:
FoxO3a = FoxO3a transcription activity dependent luciferase (4×DBE) reporter assay in HCT116 cells; format: cell-based, human; details: HCT116, 16 μM
Protocol: (§1) HCT116 cells stably expressing the luciferase reporter constructs were seeded into 96-well plates (5×10^3/well) and subjected to compound treatment when the cultures reached 80˜90% confluence. Cellular lysates were prepared at the indicated time points, and the luciferase activities were determined by a luminometer (Wallac 1420 Victor 2 multilabel counter system) as described in our previous studies (2.24, 2.25). The results are expressed as a relative activity that is normalized to the control cells without treatment.

HCT116 PUMA−/− cells [1] = experiment: Anchorage-independent growth (soft agar) assay; format: cell-based, human; details: HCT116 PUMA−/−, 16, 32 μM, soft agar 2 weeks
Protocol: (§2) Anchorage-independent growth (soft agar assay) in soft agar was carried out as described in inventors' previous studies (1.25). Briefly, 1×10^4 cells mixed with various concentration of Compound X in 10% FBS BME containing 0.33% soft agar, was seeded over bottom layer of 0.5% agar in 10% FBS BME in each well of 6-well plates. […]
(§3) Anchorage-independent growth (soft agar assay) in soft agar was carried out as described in Example 1.

HT-29 cells [2] = experiment: Anchorage-independent growth (soft agar) assay; format: cell-based, human; details: HT-29 (p53 mutant), 16, 32 μM, soft agar 2 weeks
Protocol: as §2, §3

DLD-1 cells [3] = experiment: Anchorage-independent growth (soft agar) assay; format: cell-based, human; details: DLD-1 (p53 mutant), 16, 32 μM, soft agar 2 weeks
Protocol: as §2, §3

HCT116 cells = experiment: Anchorage-independent growth (soft agar) assay; format: cell-based, human; details: HCT116, 16 and 32 μM, soft agar 2 weeks
Protocol: as §2, §3

p53 = experiment: p53-luciferase reporter (PG13-luc) in Cl41 cells; format: cell-based, mouse; details: Cl41, 16 μM
HCT116 PUMA−/− cells [4] = experiment: Flow cytometry assay with propidium iodide staining (apoptosis); format: cell-based; details: Homo sapiens, HCT-116, 48 h, read-out: inhibition of cell apoptosis in PUMA−/− cells as compared to HCT116 WT
Protocol: (§4) Flow cytometry assay was assessed as previously described in reference (1.26). After the time periods indicated, the Compound X-treated and control cells were harvested and fixed in 75% ethanol. The fixed cells were stained in the buffer containing 0.1% Triton X-100, 0.2 mg/ml RNase A, and 50 μg/ml PI (propidium iodide) at 4° C. for 1 hour and were then examined by flow cytometry utilizing an Epics XL FACS (Beckman Coulter Inc., Miami, Fla.) and EXPO 32 software as described previously (1.26).
(§5) Flow cytometry assay was carried out as described in Example 1.

AKT = experiment: Western blot, AKT phosphorylation in HCT116 cells; format: cell-based, human; details: HCT116, 16 μM
Protocol: (§6) Cellular protein extracts were prepared with cell lysis buffer (10 mM Tris-HCl, pH 7.4, 1% SDS, 1 mM Na3VO4) and resolved by SDS-PAGE. The membranes were probed with the indicated primary antibodies and HRP-conjugated secondary antibody. Signals were detected with the ECL western-blotting system as described in our previous reports (1.27, 1.28).
(§7) See Example 1 for the method.

Cl41 cells [5] = experiment: Cell cycle assay (flow cytometry, PI); format: cell-based, mouse; details: 24 h, control 63.49%
Protocol: Cell cycle assay was assessed as previously described in reference (3.16). After the time periods indicated, the Compound X-treated and control cells were harvested and fixed in 75% ethanol. The fixed cells were stained with propidium iodide (PI) solution at 4° C. for 30 minutes and were then examined by flow cytometry utilizing an Epics XL FACS (Beckman Coulter Inc., Miami, Fla.) and EXPO 32 software as described previously (3.17).
To assess whether the inhibitory effects of Compound F on growth inhibition of Cl41 cells is mediated via alteration in cell cycle regulation, the inventors evaluated the effect of Compound F2 on cell cycle distribution. The Cl41 cells were synchronized by 0.1% FBS medium for 24 h, and then cultured with 1% FBS medium containing 8, 16, 32 μM of Compound F2 for 24 h.

HCT116 Bax−/− cells [6] = experiment: Flow cytometry assay with propidium iodide staining (apoptosis); format: cell-based, human; details: 48 h
Protocol: as §4

HCT116 p21−/− cells = experiment: as above; format: cell-based, human; details: 32 μM, 48 h
Protocol: as §4

HCT116 p53−/− cells = experiment: as above; format: cell-based, human; details: 48 h
Protocol: as §4

caspase-3 and PARP = experiment: Western Blotting, cleavage of caspase 3 and PARP; format: cell-based, human; details: 16 μM, colon cancer cells
Protocol: as §6

puma promoter = experiment: PUMA promoter-driven luciferase reporter assay in HCT116 cells; format: cell-based, human; details: HCT116, 16 μM
Protocol: as §1

HT-29 cells [7] = experiment: Flow cytometry assay with propidium iodide staining (apoptosis); format: cell-based, human; details: HT-29, 16 μM or 32 μM, 48 hours
Protocol: as §4, §5

DLD-1 cells [8] = experiment: as above; format: cell-based, human; details: DLD-1, 16 μM or 32 μM, 48 hours
Protocol: as §4, §5

HCT116 wild-type cells = experiment: as above; format: cell-based, human; details: 48 h; for cell apoptosis: HCT116 WT
Protocol: as §4, §5

Cl41 cells [9] = experiment: EGF-induced cell transformation assay in soft agar; format: cell-based, mouse; details: Cl41, 20 ng/ml EGF, dose-dependent
Protocol: Anchorage-independent growth in soft agar was performed as described previously (3.15). Briefly, 2×10^4 cells mixed with various concentration of Compound X and 20 ng/ml EGF in 10% FBS […] (BMEM) containing 0.33% soft agar, was seeded over bottom layer of 0.5% agar in 10% FBS BMEM in each well of 6-well plates. The plates were incubated in 5% CO2 incubator at 37° C. for 3 weeks, and the colonies with more than 16 cells of each were scored and presented as colonies/1×10^4 cells.

p21 promoter = experiment: p21 promoter-driven luciferase reporter in Cl41 cells; format: cell-based, mouse; details: Cl41, 16 μM, time-dependent
p21 and p53 = experiment: Western Blot, p21 and p53 expression in Cl41 cells; format: cell-based, mouse; details: Cl41, 2 to 32 μM, 24 hours
Protocol: as §6, §7

p53, p21 and Bax = experiment: Western Blotting, p53, p21 and Bax expression in HCT116 cells; format: cell-based, human; details: HCT116 WT, 16 μM
Protocol: as §6

PUMA = experiment: Western Blot, PUMA induction in WT and p53−/− HCT116 cells; format: cell-based, human; details: 16 μM
Protocol: as §6, §7

HCT116 Bax−/− cells [10] = experiment: Anchorage-independent growth (soft agar) assay; format: cell-based, human; details: soft agar 14 days
Protocol: as §2

PHLPP1 = experiment: Western blot, PHLPP1 protein expression in HCT116 cells; format: cell-based, human; details: HCT116, 16 μM
Protocol: as §6, §7

[11] = mice; cited from earlier work
leukemia cell = details: involving activation of caspase-3 and downregulation of Bcl-2 mRNA; cited from earlier work

## CC(=O)O[C@H]1C=CC(=O)O[C@H]1[C@@H](O)[C@H](F)c1ccccc1 [Compound F2]
FoxO3a
  FoxO3a transactivation: significantly induced FoxO3a transactivation
HCT116 PUMA−/− cells [1]
  colony formation, sensitivity vs wild type cells: significantly more resistant
HT-29 cells [2]
  anchorage-independent growth: inhibit anchorage-independent growth
DLD-1 cells [3]
  anchorage-independent growth: inhibit anchorage-independent growth
HCT116 cells
  anchorage-independent growth (size and number of colonies) vs vehicle: significantly restrained the size and number of colonies; also recorded: significantly decreased anchorage-independent growth
p53
  p53 transactivation: significantly induced p53 transactivation
HCT116 PUMA−/− cells [4]
  inhibition at 16 µM: > 90%
AKT
  phosphorylation of AKT at Ser 473: inhibited after exposure to Compound F2 for 12 h or longer
Cl41 cells [5]; 8 μM
  proportion of cells in the G0/G1 phase: 77.74%
Cl41 cells [5]; 16 μM
  proportion of cells in the G0/G1 phase: 79.79%
Cl41 cells [5]; 32 μM
  proportion of cells in the G0/G1 phase: 80.13%
HCT116 Bax−/− cells [6]; 16 μM
  cell apoptosis: 1.00%
HCT116 Bax−/− cells [6]; 32 μM
  cell apoptosis: 0.69%
HCT116 p21−/− cells
  cell apoptosis: 80.31%
HCT116 p53−/− cells; 16 μM
  cell apoptosis: 7.41%
HCT116 p53−/− cells; 32 μM
  cell apoptosis: 14.18%
caspase-3 and PARP
  cleaved caspases-3 and PARP: detected in a time-dependent manner from 24 h to 48 h; also recorded: detected in a time-dependent manner from 6 hours to 48 hours
Puma promoter
  puma promoter transcription activity: markedly induction of puma promoter transcription activity
HT-29 cells [7]
  sub-G1 DNA content (apoptotic peak) vs vehicle control: substantial increase in sub-G1 DNA content
DLD-1 cells [8]
  sub-G1 DNA content (apoptotic peak) vs vehicle control: substantial increase in sub-G1 DNA content
HCT116 wild-type cells; HCT116, 16 μM or 32 μM
  sub-G1 DNA content (apoptotic peak) vs vehicle control: substantial increase in sub-G1 DNA content
HCT116 wild-type cells; 16 μM
  cell apoptosis: 18.30%
HCT116 wild-type cells; 32 μM
  cell apoptosis: 26.27%
Cl41 cells [9]
  EGF-induced cell transformation and colony formation on soft agar: significantly repressed EGF-induced cell transformation and colony formation
p21 promoter
  p21 promoter transcription activity: obvious induction of p21 promoter transcription activity
p21 and p53
  expression levels of p21 and p53: increased
p53, p21 and Bax
  p53, p21 and Bax protein levels: increasing as time-dependent manner
PUMA
  PUMA protein induction, time: ≤ 12 h
HCT116 Bax−/− cells [10]
  colony formation: only partially inhibit colony formation
PHLPP1
  PHLPP1 protein expression: upregulated

## CC(=O)O[C@H]1C=CC(=O)O[C@H]1C1OC1c1ccccc1 (some centres unmarked) [cheliensisin A, Cheliensisin A]
[11]
  in vivo antitumor effect: potent in vivo antitumor effect
Leukemia cell
  leukemia cell apoptosis: induced leukemia cell apoptosis
